# According to patent publication US7247626B2, “Pyrazolopyrimidine derivatives and pharmaceutical compositions containing them” (SmithKline Beecham Corporation, priority 2002, dated 2007):
# Test system: HSV-1
# Assay: HSV-1 infection of Vero 76 cells, viral DNA hybridization capture assay
# Format: cell-based
# Details: Human alphaherpesvirus 1; HSV-1 (MOI=0.001) in Vero 76 cells, 40–48 hours incubation, HSV DNA hybridization with chemiluminescence detection
# Description: Vero 76 cells were maintained in MEM with Earle's salts, L-glutamine, 8% FBS (Hyclone, A-1111-L) and 100 units/mL Penicillin-100 μg/mL Streptomycin. For assay conditions, FBS was reduced to 2%. Cells are seeded into 96-well tissue culture plates at a density of 5×10^4 cells/well after being incubated for 45 min at 37° C. in the presence of HSV-1 or HSV-2 (MOI=0.001). Test compounds are added to the wells and the plates are incubated at 37° C. for 40–48 hours. Cell lysates are prepared as follows: media was removed and replaced with 150 μL/well 0.2 N NaOH with 1% Igepal CA 630 or NP-40. Plates were incubated up to 14 days at room temperature in a humidified chamber to prevent evaporation.
# For the detection probe, a gel-purified, digoxigenin-labeled, […] PCR fragment of the HSV UL-15 sequence was utilized. PCR conditions included 0.5 μM primers, 180 μM dTTP, 20 μM dUTP-digoxigenin (Boehringer Mannheim 1558706), 200 μM each of dATP, dCTP, and dGTP, 1×PCR Buffer II (Perkin Elmer), 2.5 mM, MgCl2, 0.025 units/μL of AmpliTaq Gold polyerase (Perkin Elmer), and 5 ng a gel-purified HSV DNA per 100 μL Extension conditions were 10 min at 95° C., followed by 30 cycles of 95° C. for 1 min, 55° C. for 30 sec, and 72° C. for 2 min. The amplification was completed with a 10-min incubation at 72° C. Primers were selected to amplify a 728 bp probe spanning a section of the HSV1 UL15 open reading frame (nucleotides 249–977). Single-stranded transcripts were purified with Promega M13 Wizard kits. The final product was mixed 1:1 with a mixture of 6 M GuSCN, 100 mM EDTA and 200 μg/mL herring sperm DNA and stored at 4° C.
# The capture DNA plasmid (HSV UL13 region in pUC) was linearized by cutting with Xba I, denatured for 15 min at 95° C. and diluted immediately into Reacti-Bind DNA Coating Solution (Pierce, 17250, diluted 1:1 with TE buffer, pH 8) at 1 ng/μL 75 μl/well were added to Corning (#3922 or 9690) white 96-well plates and incubated at room temperature for at least 4 hrs before washing twice with 300 μL/well 0.2×SSC/0.05% Tween-20 (SSC/T buffer). The plates were then incubated overnight at room temperature with 150 μL/well 0.2 N NaOH, 1% IGEPAL and 10 μg/mL herring sperm DNA.
# Twenty-seven (27) μL of cell lysate was combined with 45 μL of hydridization solution (final concentration: 3M GuSCN, 50 mM EDTA, 100 μg/ml salmon sperm DNA, 5× Denhardt's solution, 0.25× APE, and 5 ng of the digoxigenin-labeled detection probe). APE is 1.5 M NH4-acetate, 0.15 M NH4H2phosphate, and 5 mM EDTA adjusted to pH 6.0. Mineral oil (50 μL) was added to prevent evaporation. The hybridization plates were incubated at 95° C. for 10 minutes to denature the DNA, then incubated at 42° C. overnight. The wells were washed 6× with 300 μL/well SSC/T buffer then incubated with 75 μL/well anti-digoxigenin-HRP-conjugated antibody (Boehringer Mannheim 1207733, 1:5000 in TE) for 30 min at room temperature. The wells were washed 6× with 300 μL/well with PBS/0.05% Tween-20 before 75 μL/well SuperSignal LBA substrate (Pierce) was added. The plates were incubated at room temperature for 30 minutes and chemiluminescence was measured in a Wallac Vietor reader.
# The following results were obtained for HSV-1.
row,IC50 [nM],SMILES
1,500,"CCCOc1ccc(-c2nn3c(NC4CCCC4)nccc3c2-c2ccnc(NC3CCCC3)n2)cc1 [Example 28, N-Cyclopentyl-3-[2-(cyclopentylamino)pyrimidin-4-yl]-2-(4-propoxyphenyl)pyrazolo[1,5-c]pyrimidin-7-amine]"
2,7000,"CC(C)(C)Nc1nccc2c(-c3ccnc(NC4CCCC4)n3)c(-c3ccc(F)cc3)nn12 [Example 29, N-(tert-Butyl)-3-[2-(cyclopentylamino)pyrimidin-4-yl]-2-(4-fluorophenyl)pyrazolo[1,5-c]pyrimidin-7-amine]"
3,2000,"Fc1ccc(-c2nn3c(N4CCCC4)nccc3c2-c2ccnc(NC3CCCC3)n2)cc1 [Example 30, N-Cyclopentyl-4-[2-(4-fluorophenyl)-7-pyrrolidin-1-ylpyrazolo[1,5-c]pyrimidin-3-yl]pyrimidin-2-amine]"
4,1000,"Fc1ccc(-c2nn3c(N4CCCCC4)nccc3c2-c2ccnc(NC3CCCC3)n2)cc1 [Example 31, N-Cyclopentyl-4-[2-(4-fluorophenyl)-7-piperidin-1-ylpyrazolo[1,5-c]pyrimidin-3-yl]pyrimidin-2-amine]"
